For 3 compounds, pest or weed control, Corn plant response rating (crop injury, 0 = no effect, 100 = complete kill) and plant injury results are on record in patent US12077503B2, “Substituted cyclic amides and their use as herbicides” (FMC CORPORATION, priority 2015, dated 2024).

Common to all, as to type: in vivo
The subject of test [1] is Kochia (Kochia scoparia). The test can be described thus: Test A preemergence. The settings on record: Bassia scoparia, pre-emergence, 240 h, preemergence, read-out: Plant response rating, Kochia; for pest or weed control at 125 g/ha: 125 g ai/ha, visual rating after approx. 10 d, 0 to 100 scale where 0 is no effect and 100 is complete control; for pest or weed control at 500 g/ha: 500 g ai/ha, 0 to 100 scale, 0 = no effect, 100 = complete control. In a few lines: (§1)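 Visual injury, scored on a 0–100 scale relative to untreated controls, was recorded about 10 d after application. Treatments were a preemergence soil spray over planted seeds or a postemergence spray on plants at the one- to two-leaf stage, 2 to 10 cm tall, all in loam soil–sand blend in the greenhouse.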

The subject of test [2] is giant foxtail (Setaria faberii). The test can be described thus: Test A preemergence. To be noted: Setaria faberi, pre-emergence, 240 h, preemergence, read-out: Plant response rating, Foxtail, Giant; for pest or weed control at 125 g/ha: 125 g ai/ha, visual rating after approx. 10 d, 0 to 100 scale where 0 is no effect and 100 is complete control; for pest or weed control at 500 g/ha: 500 g ai/ha, 0 to 100 scale, 0 = no effect, 100 = complete control. In a few lines:
as §1

Test [3] concerns pigweed (Amaranthus retroflexus). Nature of the test: Test A preemergence. To be noted: Amaranthus retroflexus, pre-emergence, 240 h, preemergence, read-out: Plant response rating, Pigweed; for pest or weed control at 125 g/ha: 125 g ai/ha, visual rating after approx. 10 d, 0 to 100 scale where 0 is no effect and 100 is complete control; for pest or weed control at 500 g/ha: 500 g ai/ha, 0 to 100 scale, 0 = no effect, 100 = complete control.

For test [4], the system named is ragweed (common ragweed, Ambrosia elatior). The test can be described thus: Test A preemergence. The settings on record: Ambrosia artemisiifolia, pre-emergence, 240 h, preemergence, read-out: Plant response rating, Ragweed; for pest or weed control at 125 g/ha: 125 g ai/ha, visual rating after approx. 10 d, 0 to 100 scale where 0 is no effect and 100 is complete control; for pest or weed control at 500 g/ha: 500 g ai/ha, 0 to 100 scale, 0 = no effect, 100 = complete control. In a few lines:
as §1

Test [5] concerns ryegrass, Italian (Italian ryegrass, Lolium multiflorum). Nature of the test: Test A preemergence. To be noted: Lolium multiflorum, pre-emergence, 240 h, preemergence, read-out: Plant response rating, Ryegrass, Italian; for pest or weed control at 125 g/ha: 125 g ai/ha, visual rating after approx. 10 d, 0 to 100 scale where 0 is no effect and 100 is complete control; for pest or weed control at 500 g/ha: 500 g ai/ha, 0 to 100 scale, 0 = no effect, 100 = complete control. In a few lines: as §1

Test [6] relates to Galium (catchweed bedstraw, Galium aparine). Nature of the test: Test A postemergence. The settings on record: Galium, post-emergence, 240 h, 125 g ai/ha, postemergence; visual injury after approximately 10 d; 0 to 100 scale (0 no effect, 100 complete control); read-out: Plant response rating, Galium. In a few lines: as §1
For test [7], the system named is Kochia (Kochia scoparia). Nature of the test: Test A postemergence. To be noted: Bassia scoparia, post-emergence, 240 h, 125 g ai/ha, postemergence; visual injury after approximately 10 d; 0 to 100 scale (0 no effect, 100 complete control); read-out: Plant response rating, Kochia. In a few lines: as §1
For test [8], the system named is barnyardgrass (Echinochloa crus-galli). Nature of the test: Test A postemergence. To be noted: Echinochloa crus-galli, post-emergence, 240 h, 125 g ai/ha, postemergence; visual injury after approximately 10 d; 0 to 100 scale (0 no effect, 100 complete control); read-out: Plant response rating, Barnyardgrass. In a few lines: as §1
Test [9] relates to blackgrass (Alopecurus myosuroides). Nature of the test: Test A postemergence. To be noted: Alopecurus myosuroides, post-emergence, 240 h, 125 g ai/ha, postemergence; visual injury after approximately 10 d; 0 to 100 scale (0 no effect, 100 complete control); read-out: Plant response rating, Blackgrass. In a few lines:
as §1

For test [10], the system named is corn (Zea mays). Nature of the test: Test A postemergence. The settings on record: Zea mays, post-emergence, 240 h, 125 g ai/ha, postemergence; visual injury after approximately 10 d; 0 to 100 scale (0 no effect, 100 complete control). In a few lines: as §1
In test [11] the test system is giant foxtail (Setaria faberii). The test can be described thus: Test A postemergence. To be noted: Setaria faberi, post-emergence, 240 h, 125 g ai/ha, postemergence; visual injury after approximately 10 d; 0 to 100 scale (0 no effect, 100 complete control); read-out: Plant response rating, Foxtail, Giant. In a few lines:
as §1

The subject of test [12] is pigweed (Amaranthus retroflexus). The test can be described thus: Test A postemergence. To be noted: Amaranthus retroflexus, post-emergence, 240 h, 125 g ai/ha, postemergence; visual injury after approximately 10 d; 0 to 100 scale (0 no effect, 100 complete control); read-out: Plant response rating, Pigweed. In a few lines: as §1
Test [13] deals with ragweed (common ragweed, Ambrosia elatior). The test can be described thus: Test A postemergence. The settings on record: Ambrosia artemisiifolia, post-emergence, 240 h, 125 g ai/ha, postemergence; visual injury after approximately 10 d; 0 to 100 scale (0 no effect, 100 complete control); read-out: Plant response rating, Ragweed. In a few lines:
as §1

Test [14] concerns ryegrass, Italian (Italian ryegrass, Lolium multiflorum). The test can be described thus: Test A postemergence. The settings on record: Lolium multiflorum, post-emergence, 240 h, 125 g ai/ha, postemergence; visual injury after approximately 10 d; 0 to 100 scale (0 no effect, 100 complete control); read-out: Plant response rating, Ryegrass, Italian. In a few lines:
as §1

Test [15] has as its system wheat (Triticum aestivum). Nature of the test: Test A postemergence. The settings on record: Triticum aestivum, post-emergence, 240 h, 125 g ai/ha, postemergence; visual injury after approximately 10 d; 0 to 100 scale (0 no effect, 100 complete control); read-out: Plant response rating, Wheat. In a few lines: as §1

Structures are written as SMILES.

As to `CN1C[C@H](c2ccc(C(F)(F)F)cc2)[C@@H](C(=O)Nc2ccc(F)c(F)c2F)C1=O` [Compound 745], the pest or weed control at 125 g/ha turned out to be 90% in test [1]; 90% in [2]; 80% in [3]; 80% in test [4]; 70% in test [5]; 60% in test [6]. For the same compound, the pest or weed control at 125 g/ha in test [7] was 70%; in [8], 90%; in test [9], 40%; in [11], 90%; in test [12] it was 70%; in test [13], 40%. Further, in test [14], the pest or weed control at 125 g/ha amounted to 50%. Moreover, the pest or weed control at 500 g/ha in test [1] was found to be 90%; in test [2], 90%; in [3], 90%; in [4], 80%; in [5], 90%. In [10], the Corn plant response rating (crop injury, 0 = no effect, 100 = complete kill) at 125 g/ha was determined as 90%. In addition, the plant injury at 125 g/ha in [15] is 60%.
In the case of `Cc1cc([C@H]2CNC(=O)[C@@H]2C(=O)Nc2ccccc2F)ccc1F` [Compound 717], the pest or weed control at 125 g/ha is 0% in [1]; 80% in [2]; 0% in test [3]; 0% in [4]; 0% in [5]; 40% in test [6]. Moreover, the pest or weed control at 125 g/ha in test [7] turned out to be 20%; in test [8], 90%; in test [9], 0%; in test [11] it was 30%; in [12], 0%; in test [13], 0%. Also, the pest or weed control at 125 g/ha in test [14] amounted to 0%. Moreover, the pest or weed control at 500 g/ha stood at 60% in test [1]; 90% in test [2]; 30% in test [3]; 40% in test [4]; 30% in [5]. Also, the Corn plant response rating (crop injury, 0 = no effect, 100 = complete kill) at 125 g/ha in test [10] came out at 0%. Further, in [15], the plant injury at 125 g/ha was determined as 0%.
Turning to `CS(=O)(=O)c1ccccc1NC(=O)[C@H]1C(=O)NC[C@@H]1c1cccc2c1OC(F)(F)O2` [Compound 753], the pest or weed control at 125 g/ha in test [1] was found to be 20%; in [2], 70%; in test [3], 0%; in [4], 0%; in test [5], 0%; in test [6], 0%. Further, the pest or weed control at 125 g/ha worked out at 0% in test [7]; 50% in [8]; 0% in test [9]; 0% in test [11]; 0% in [12]; 0% in test [13]. The pest or weed control at 125 g/ha in test [14] stood at 0%. Further, the pest or weed control at 500 g/ha amounted to 20% in test [1]; 90% in test [2]; 0% in test [3]; 0% in [4]; 20% in [5]. The same compound displayed a Corn plant response rating (crop injury, 0 = no effect, 100 = complete kill) at 125 g/ha in test [10] of 0%. In [15], the plant injury at 125 g/ha was 0%.
